Data from ChEMBL document CHEMBL3120108, “Direct interaction of garcinol and related polyisoprenylated benzophenones of Garcinia cambogia fruits with the transcription factor STAT-1 as a likely mechanism of their inhibitory effect on cytokine signaling pathways” (J Nat Prod, 2014).
Calls of active or inactive are those of the source. The calls are words filed in the database; no cut-off is given here.

Key:
[1] = target: T1, Signal transducer and activator of transcription 1-alpha/beta (Homo sapiens, UniProt P42224); experiment: Binding affinity to STAT1 (unknown origin) by surface plasmon resonance assay
T1 sequence (P42224 whole entry): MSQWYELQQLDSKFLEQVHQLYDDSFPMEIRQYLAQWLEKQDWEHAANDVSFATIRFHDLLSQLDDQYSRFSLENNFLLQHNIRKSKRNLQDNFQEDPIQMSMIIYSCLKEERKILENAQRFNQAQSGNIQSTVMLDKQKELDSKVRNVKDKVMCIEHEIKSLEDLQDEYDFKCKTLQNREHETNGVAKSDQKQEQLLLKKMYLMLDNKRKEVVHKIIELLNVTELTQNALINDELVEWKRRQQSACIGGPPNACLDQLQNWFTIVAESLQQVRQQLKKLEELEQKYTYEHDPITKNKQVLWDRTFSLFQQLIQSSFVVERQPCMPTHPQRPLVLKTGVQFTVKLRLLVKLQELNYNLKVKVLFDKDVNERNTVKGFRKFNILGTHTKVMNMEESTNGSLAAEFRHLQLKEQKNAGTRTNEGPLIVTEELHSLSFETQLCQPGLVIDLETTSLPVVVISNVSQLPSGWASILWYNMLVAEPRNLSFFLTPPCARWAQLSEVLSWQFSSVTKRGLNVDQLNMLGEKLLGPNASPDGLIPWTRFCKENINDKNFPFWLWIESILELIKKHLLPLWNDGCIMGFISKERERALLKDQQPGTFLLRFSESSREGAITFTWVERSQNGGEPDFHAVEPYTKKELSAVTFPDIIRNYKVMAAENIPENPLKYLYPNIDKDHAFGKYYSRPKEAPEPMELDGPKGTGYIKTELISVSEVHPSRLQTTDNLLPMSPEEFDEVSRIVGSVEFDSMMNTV

[2] = target: T2, Signal transducer and activator of transcription 1 (Rattus norvegicus) (UniProt Q6P6Q7); experiment: Inhibition of INFgamma-induced STAT1 activation in rat INS-1E cells assessed as reduction of STAT1-DNA binding activity at 10 uM preincubated for 30 mins followed by cytokine challenge measured after 60 mins by electrophoretic mobility shift assay; format: cell-based
T2 sequence (whole entry): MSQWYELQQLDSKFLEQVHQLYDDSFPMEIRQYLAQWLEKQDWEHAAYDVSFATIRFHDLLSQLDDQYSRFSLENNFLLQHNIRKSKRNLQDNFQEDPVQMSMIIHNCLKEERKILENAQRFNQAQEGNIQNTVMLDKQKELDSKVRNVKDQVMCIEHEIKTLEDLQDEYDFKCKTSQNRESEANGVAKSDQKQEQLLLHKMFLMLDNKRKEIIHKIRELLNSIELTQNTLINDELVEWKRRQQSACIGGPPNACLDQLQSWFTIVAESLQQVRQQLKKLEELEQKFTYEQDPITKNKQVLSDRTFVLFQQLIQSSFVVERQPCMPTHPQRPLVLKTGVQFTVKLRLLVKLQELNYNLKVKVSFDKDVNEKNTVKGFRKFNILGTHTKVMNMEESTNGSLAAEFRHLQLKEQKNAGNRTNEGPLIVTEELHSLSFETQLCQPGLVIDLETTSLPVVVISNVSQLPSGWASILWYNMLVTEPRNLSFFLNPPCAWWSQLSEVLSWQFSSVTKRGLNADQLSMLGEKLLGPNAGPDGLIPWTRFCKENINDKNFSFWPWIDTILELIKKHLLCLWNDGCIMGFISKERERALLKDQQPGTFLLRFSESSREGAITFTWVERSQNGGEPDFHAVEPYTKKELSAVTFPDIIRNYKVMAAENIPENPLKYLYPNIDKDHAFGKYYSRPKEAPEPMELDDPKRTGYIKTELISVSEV

[3] = target: T2, Signal transducer and activator of transcription 1 (Rattus norvegicus); experiment: Inhibition of INFgamma-induced STAT1 activation in rat INS-1E cells assessed as reduction of STAT1-DNA binding activity at 25 uM preincubated for 30 mins followed by cytokine challenge measured after 60 mins by electrophoretic mobility shift assay; format: cell-based
[4] = target: T3, Signal transducer and activator of transcription 1-alpha/beta (Homo sapiens) (UniProt P42224); experiment: Inhibition of STAT1 in human […] cells assessed as suppression of INFgamma-induced SOCS-1 expression at 25 to 40 uM by Northern blotting technique; format: cell-based
T3 sequence (whole entry): T1 sequence (P42224 whole entry)

[5] = target: T3, Signal transducer and activator of transcription 1-alpha/beta (Homo sapiens); experiment: Inhibition of INFgamma-induced STAT1 activation in human […] cells assessed as reduction of STAT1-DNA binding activity at 50 uM preincubated for 30 mins followed by cytokine challenge measured after 60 mins by electrophoretic mobility shift assay; format: cell-based
[6] = target: T3, Signal transducer and activator of transcription 1-alpha/beta (Homo sapiens); experiment: Inhibition of INFgamma-induced STAT1 activation in human […] cells assessed as reduction of STAT1-DNA binding activity preincubated for 30 mins followed by cytokine challenge measured after 60 mins by electrophoretic mobility shift assay; format: cell-based
INS-1E = experiment: Inhibition of TNFalpha-induced NFkappaB activation in rat INS-1E cells assessed as reduction of NFkappaB-DNA binding activity at 25 uM preincubated for 30 mins followed by cytokine challenge measured after 60 mins by electrophoretic mobility shift assay; format: cell-based
MDA-MB-231 [7] = experiment: Inhibition of TNFalpha-induced NFkappaB activation in human MDA-MB-231 cells assessed as reduction of NFkappaB-DNA binding activity at 50 uM preincubated for 30 mins followed by cytokine challenge measured after 60 mins by electrophoretic mobility shift assay; format: cell-based
MDA-MB-231 [8] = experiment: Inhibition of TNFalpha-induced NFkappaB activation in human MDA-MB-231 cells assessed as reduction of NFkappaB-DNA binding activity preincubated for 30 mins followed by cytokine challenge measured after 60 mins by electrophoretic mobility shift assay; format: cell-based
[9] = target: T3, Signal transducer and activator of transcription 1-alpha/beta (Homo sapiens); experiment: Inhibition of INFgamma-induced STAT1 activation in human […] cells assessed as reduction of STAT1-DNA binding activity at 25 uM preincubated for 30 mins followed by cytokine challenge measured after 60 mins by electrophoretic mobility shift assay; format: cell-based

Row | SMILES | Kd [1] | inhibition [2] | inhibition [3] | inhibition [4] | inhibition [5] | inhibition [6] | inhibition (INS-1E) | inhibition (MDA-MB-231 [7]) | inhibition (MDA-MB-231 [8]) | inhibition [9]
1 | O=C(O[C@@H]1Cc2c(O)cc(O)cc2O[C@@H]1c1cc(O)c(O)c(O)c1)c1cc(O)c(O)c(O)c1 [EPIGALOCATECHIN GALLATE] | 0.7 µM |  |  |  |  |  |  |  |  | 
2 | CC(C)=CCC[C@@]1(C)[C@H](CC=C(C)C)C[C@]2(CC=C(C)C)C(=O)[C@@]1(CC=C(C)C)C(=O)C(C(=O)c1ccc(O)c(O)c1)=C2O [GUTTIFERONE K] | 20.6 µM | Active | Active | Active | Active | Dose-dependent effect |  |  |  | 
3 | C=C(C)[C@@H](CC=C(C)C)C[C@@]12C[C@@H](CC=C(C)C)C(C)(C)[C@@](CC=C(C)C)(C(=O)C(C(=O)c3ccc(O)c(O)c3)=C1O)C2=O [GARCINOL] | 16.9 µM |  | Active |  |  | Dose-dependent effect | Active | Active | Dose-dependent effect | Active
4 | CC(C)=CCC/C(C)=C/C[C@@]12C[C@H](CC=C(C)C)C(C)(C)[C@@](CC=C(C)C)(C(=O)C(C(=O)c3ccc(O)c(O)c3)=C1O)C2=O | 4.67 µM |  | inactive |  | Active | Dose-dependent effect | inactive | inactive |  | 
